Measurements as given in the NIST ThermoML archive (doi:10.1016/j.fluid.2018.01.026).
± gives the expanded uncertainty stated by the source.

Settings: 101.33 kPa, Liquid, Vibrating tube method

SMILES: CC(=O)CO [acetol]
- mass density (293.15 K): 1080.13 ± 6.3 kg/m3
- mass density (298.15 K): 1074.92 ± 6.3 kg/m3
- mass density (303.15 K): 1069.67 ± 6.2 kg/m3
- mass density (308.15 K): 1064.31 ± 6.1 kg/m3
- mass density (313.15 K): 1058.71 ± 6.1 kg/m3
- mass density (318.15 K): 1053.13 ± 6 kg/m3
- mass density (323.15 K): 1047.55 ± 5.9 kg/m3
- mass density (328.15 K): 1042.01 ± 5.9 kg/m3
- mass density (333.15 K): 1036.62 ± 5.8 kg/m3

SMILES: CCCCOC(C)=O [butyl ethanoate]
- mass density (293.15 K): 880.61 ± 1 kg/m3
- mass density (298.15 K): 875.45 ± 1 kg/m3
- mass density (303.15 K): 870.27 ± 1 kg/m3
- mass density (308.15 K): 865.08 ± 1 kg/m3
- mass density (313.15 K): 859.86 ± 1 kg/m3

SMILES: CCOC(C)=O [ethyl acetate]
- mass density (293.15 K): 900.48 ± 1 kg/m3
- mass density (298.15 K): 894.36 ± 1 kg/m3
- mass density (303.15 K): 888.19 ± 1 kg/m3
- mass density (308.15 K): 881.98 ± 1 kg/m3
- mass density (313.15 K): 875.73 ± 1 kg/m3

SMILES: CCCOC(C)=O [propyl ethanoate]
- mass density (293.15 K): 887.8 ± 1 kg/m3
- mass density (298.15 K): 882.19 ± 1 kg/m3
- mass density (303.15 K): 876.56 ± 1 kg/m3
- mass density (308.15 K): 870.9 ± 1 kg/m3
- mass density (313.15 K): 865.21 ± 1 kg/m3
